From ChEMBL document CHEMBL2073819, “Enhanced exposure of phosphatidylserine in human gastric carcinoma cells overexpressing the half-size ABC transporter BCRP (ABCG2)” (Biochem J, 2003) come the findings set out here.

Common to all, as to assay type: functional, cell-based
Data set [1] has as its target T1, Broad substrate specificity ATP-binding cassette transporter ABCG2 (Homo sapiens, UniProt Q9UNQ0).
T1 sequence (Q9UNQ0 whole entry): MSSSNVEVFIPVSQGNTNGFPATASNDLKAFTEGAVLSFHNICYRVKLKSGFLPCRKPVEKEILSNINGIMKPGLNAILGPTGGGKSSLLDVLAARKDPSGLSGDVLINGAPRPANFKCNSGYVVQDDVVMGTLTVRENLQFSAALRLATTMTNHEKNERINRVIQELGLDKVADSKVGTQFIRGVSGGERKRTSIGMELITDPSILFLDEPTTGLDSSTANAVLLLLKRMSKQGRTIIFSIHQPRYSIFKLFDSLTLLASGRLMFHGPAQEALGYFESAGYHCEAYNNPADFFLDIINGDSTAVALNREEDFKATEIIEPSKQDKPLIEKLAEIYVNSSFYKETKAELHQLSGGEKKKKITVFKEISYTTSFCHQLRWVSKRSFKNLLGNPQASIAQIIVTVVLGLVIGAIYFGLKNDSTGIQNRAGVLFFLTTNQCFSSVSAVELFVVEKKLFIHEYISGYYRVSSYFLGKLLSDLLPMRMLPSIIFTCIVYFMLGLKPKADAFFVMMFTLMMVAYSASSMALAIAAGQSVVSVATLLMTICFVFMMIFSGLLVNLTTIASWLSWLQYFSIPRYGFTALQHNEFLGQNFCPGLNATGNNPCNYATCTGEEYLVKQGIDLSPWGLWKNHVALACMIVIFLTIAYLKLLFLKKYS
The data set can be described thus: TP_TRANSPORTER: efflux in BCRP-expressing EPG85-257 cells.

The target in data set [2] is T2, ATP-dependent translocase ABCB1 (Homo sapiens, UniProt P08183). As to the kind of experiment: TP_TRANSPORTER: efflux in MDR1-expressing EPG85-257 cells.
For data set [3], the target named is T1, Broad substrate specificity ATP-binding cassette transporter ABCG2. The data set can be described thus: TP_TRANSPORTER: inhibition of C6-NBD-PS efflux in BCRP-expressing EPG85-257 cells.
Data set [4] concerns the target T2, ATP-dependent translocase ABCB1. The data set can be described thus: TP_TRANSPORTER: inhibition of C6-NBD-PS efflux in MDR1-expressing EPG85-257 cells.

T2 sequence (P08183 whole entry): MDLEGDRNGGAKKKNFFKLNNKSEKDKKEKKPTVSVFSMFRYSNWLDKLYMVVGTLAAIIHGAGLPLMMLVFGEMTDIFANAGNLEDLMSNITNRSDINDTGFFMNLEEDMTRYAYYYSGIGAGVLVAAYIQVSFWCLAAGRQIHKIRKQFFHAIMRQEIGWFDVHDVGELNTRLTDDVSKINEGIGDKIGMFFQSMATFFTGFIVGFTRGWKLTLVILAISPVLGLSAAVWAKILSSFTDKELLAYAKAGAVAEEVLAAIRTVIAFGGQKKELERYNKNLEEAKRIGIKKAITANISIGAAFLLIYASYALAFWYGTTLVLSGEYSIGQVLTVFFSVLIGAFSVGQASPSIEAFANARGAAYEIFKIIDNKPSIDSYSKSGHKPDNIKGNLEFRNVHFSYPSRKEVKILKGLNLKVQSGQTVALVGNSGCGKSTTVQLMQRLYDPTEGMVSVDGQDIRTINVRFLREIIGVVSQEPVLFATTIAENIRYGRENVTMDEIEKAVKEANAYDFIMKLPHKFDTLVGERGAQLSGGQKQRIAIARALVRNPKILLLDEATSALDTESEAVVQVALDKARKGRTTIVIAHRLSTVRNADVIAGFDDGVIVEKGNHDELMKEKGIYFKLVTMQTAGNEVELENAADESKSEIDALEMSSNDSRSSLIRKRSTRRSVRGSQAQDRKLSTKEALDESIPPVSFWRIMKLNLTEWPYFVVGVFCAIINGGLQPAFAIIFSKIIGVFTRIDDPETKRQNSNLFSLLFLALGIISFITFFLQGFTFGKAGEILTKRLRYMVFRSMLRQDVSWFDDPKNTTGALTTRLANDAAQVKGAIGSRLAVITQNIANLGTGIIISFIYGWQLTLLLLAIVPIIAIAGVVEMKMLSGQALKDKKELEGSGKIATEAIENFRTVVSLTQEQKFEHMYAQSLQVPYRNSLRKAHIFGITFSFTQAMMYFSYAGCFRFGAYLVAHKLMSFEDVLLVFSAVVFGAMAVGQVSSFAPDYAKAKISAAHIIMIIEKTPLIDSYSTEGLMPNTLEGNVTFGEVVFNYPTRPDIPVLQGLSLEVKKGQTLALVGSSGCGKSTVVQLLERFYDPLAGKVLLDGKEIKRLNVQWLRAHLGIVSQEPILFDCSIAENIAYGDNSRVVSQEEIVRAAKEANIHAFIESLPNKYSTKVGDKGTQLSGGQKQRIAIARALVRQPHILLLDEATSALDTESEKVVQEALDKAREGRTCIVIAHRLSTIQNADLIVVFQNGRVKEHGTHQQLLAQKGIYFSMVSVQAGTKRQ

Consider `CCCCCCCCCCCCCCCC(=O)OCC(COP(=O)([O-])OCC[N+](C)(C)C)OC(=O)CCCCCNc1ccc([N+](=O)[O-])c2nonc12` (stereo unspecified), for which the Activity entry in data set [1] was “substrate []”.

`CCCCCCCC/C=C\CCCCCCCC(=O)OC(COC(=O)CCCCCCC/C=C/CCCCCCCC)COP(=O)(O)OC[C@H](Nc1ccc([N+](=O)[O-])c2nonc12)C(=O)O` (stereo partly specified): the Activity result in data set [1] and in data set [2] was “substrate []” each time.

As for `COc1cc2c(cc1OC)CN(CCc1ccc(NC(=O)c3cccc4c(=O)c5cccc(OC)c5[nH]c34)cc1)CC2.Cl` [ELACRIDAR HYDROCHLORIDE], in data set [3], the Activity entry is “inhibitor []”.

`COc1ccc2c(C[C@@H]3NC(=O)[C@@H]4CCCN4C3=O)c(CC=C(C)C)[nH]c2c1` [TRYPROSTATIN A]: the Activity result in data set [3] and in data set [4] was “inhibitor []” each time.
